Measured values published in ChEMBL document CHEMBL1201861, “Genomics of Drug Sensitity in Cancer screening data, Wellcome Trust Sanger Institute”.

Key:
Ca9-22 = assay: cells; format: functional, cell-based; conditions: Homo sapiens;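 note: growth inhibition of Ca9-22 cells, read out with a cell viability assay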
Description: SANGER: Inhibition of human Ca9-22 cell growth in a cell viability assay.

DG-75 = assay: cells; format: functional, cell-based; conditions: Homo sapiens;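 note: growth inhibition of DG-75 cells, read out with a cell viability assay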
Description: SANGER: Inhibition of human DG-75 cell growth in a cell viability assay.

DK-MG = assay: cells; format: functional, cell-based; conditions: Homo sapiens;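 note: growth inhibition of DK-MG cells, read out with a cell viability assay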
Description: SANGER: Inhibition of human DK-MG cell growth in a cell viability assay.

DMS-273 = assay: cells; format: functional, cell-based; conditions: Homo sapiens
Description: SANGER: Inhibition of human DMS-273 cell growth in a cell viability assay.

DOK = assay: cells; format: functional, cell-based; conditions: Homo sapiens;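 note: cell viability assay read-out, values reflect inhibition of cell growth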
Description: SANGER: Inhibition of human DOK cell growth in a cell viability assay.

ESS-1 = assay: cells; format: functional, cell-based; conditions: Homo sapiens;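 note: growth inhibition of human ESS-1 cells, read out by a cell viability assay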
Description: SANGER: Inhibition of human ESS-1 cell growth in a cell viability assay.

GCT = assay: cells; format: functional, cell-based; conditions: Homo sapiens;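 note: GCT cell line proliferation inhibition, read out with a cell viability assay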
Description: SANGER: Inhibition of human GCT cell growth in a cell viability assay.

HCC1806 = assay: cells; format: functional, cell-based; conditions: Homo sapiens;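 note: growth inhibition of the cancer cell line, determined with a cell viability assay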
Description: SANGER: Inhibition of human HCC1806 cell growth in a cell viability assay.

HEC-1 = assay: cells; format: functional, cell-based; conditions: Homo sapiens;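 note: growth inhibition of the cell line, read out with a cell viability assay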
Description: SANGER: Inhibition of human HEC-1 cell growth in a cell viability assay.

HGC-27 = assay: cells; format: functional, cell-based; conditions: Homo sapiens;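 note: growth inhibition of human HGC-27 cells, read out in a cell viability assay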
Description: SANGER: Inhibition of human HGC-27 cell growth in a cell viability assay.

HO-1-N-1 = assay: cells; format: functional, cell-based; conditions: Homo sapiens;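 note: growth inhibition of human HO-1-N-1 cells, read out with a cell viability assay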
Description: SANGER: Inhibition of human HO-1-N-1 cell growth in a cell viability assay.

HPAF-II = assay: cells; format: functional, cell-based; conditions: Homo sapiens;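 note: growth inhibition of HPAF-II cells, read out with a cell viability assay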
Description: SANGER: Inhibition of human HPAF-II cell growth in a cell viability assay.

HT-29 = assay: cells; format: functional, cell-based; conditions: Homo sapiens;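 note: growth inhibition of human HT-29 cells, read out by a cell viability assay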
Description: SANGER: Inhibition of human HT-29 cell growth in a cell viability assay.

HuO-3N1 = assay: cells; format: functional, cell-based; conditions: Homo sapiens;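 note: cell viability readout used to measure how strongly compounds suppress proliferation of human HuO-3N1 cells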
Description: SANGER: Inhibition of human HuO-3N1 cell growth in a cell viability assay.

HuP-T3 = assay: cells; format: functional, cell-based; conditions: Homo sapiens;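 note: HuP-T3 cell growth inhibition, read out with a cell viability assay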
Description: SANGER: Inhibition of human HuP-T3 cell growth in a cell viability assay.

LCLC-103H cell line = assay: cells; format: functional, cell-based; conditions: Homo sapiens
Description: SANGER: Inhibition of human LCLC-103H cell growth in a cell viability assay.

LCLC-97TM1 = assay: cells; format: functional, cell-based; conditions: Homo sapiens;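 note: cell viability assay measuring growth inhibition of human LCLC-97TM1 cells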
Description: SANGER: Inhibition of human LCLC-97TM1 cell growth in a cell viability assay.

LN-405 = assay: cells; format: functional, cell-based; conditions: Homo sapiens
Description: SANGER: Inhibition of human LN-405 cell growth in a cell viability assay.

LOUCY = assay: cells; format: functional, cell-based; conditions: Homo sapiens;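 note: growth inhibition of human LOUCY cells, read out with a cell viability assay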
Description: SANGER: Inhibition of human LOUCY cell growth in a cell viability assay.

LP-1 = assay: cells; format: functional, cell-based; conditions: Homo sapiens;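 note: growth inhibition of human LP-1 cells, with the read-out taken from a cell viability assay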
Description: SANGER: Inhibition of human LP-1 cell growth in a cell viability assay.

MC-IXC = assay: cells; format: functional, cell-based; conditions: Homo sapiens;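 note: growth inhibition of MC-IXC cells, read out with a cell viability assay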
Description: SANGER: Inhibition of human MC-IXC cell growth in a cell viability assay.

MCF7 = assay: cells; format: functional, cell-based; conditions: Homo sapiens;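 note: growth inhibition of human MCF7 cells, read out with a cell viability assay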
Description: SANGER: Inhibition of human MCF7 cell growth in a cell viability assay.

MDA-MB-157 = assay: cells; format: functional, cell-based; conditions: Homo sapiens
Description: SANGER: Inhibition of human MDA-MB-157 cell growth in a cell viability assay.

MDA-MB-361 = assay: cells; format: functional, cell-based; conditions: Homo sapiens
MEL-HO = assay: cells; format: functional, cell-based; conditions: Homo sapiens
Description: SANGER: Inhibition of human MEL-HO cell growth in a cell viability assay.

MeWo = assay: cells; format: functional, cell-based; conditions: Homo sapiens;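 note: growth inhibition of MeWo cells, determined by a cell viability readout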
Description: SANGER: Inhibition of human Mewo cell growth in a cell viability assay.

NCI-H1563 = assay: cells; format: functional, cell-based; conditions: Homo sapiens;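 note: growth inhibition of human NCI-H1563 cells, read out with a cell viability assay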
Description: SANGER: Inhibition of human NCI-H1563 cell growth in a cell viability assay.

NCI-H2052 = assay: cells; format: functional, cell-based; conditions: Homo sapiens;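 note: growth inhibition of NCI-H2052 cells, read out with a cell viability assay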
Description: SANGER: Inhibition of human NCI-H2052 cell growth in a cell viability assay.

NCI-H2228 = assay: cells; format: functional, cell-based; conditions: Homo sapiens;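 note: growth inhibition of human NCI-H2228 cells, read out by a cell viability assay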
Description: SANGER: Inhibition of human NCI-H2228 cell growth in a cell viability assay.

NCI-H292 = assay: cells; format: functional, cell-based; conditions: Homo sapiens;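 note: growth inhibition of NCI-H292 cells, read out with a cell viability assay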
Description: SANGER: Inhibition of human NCI-H292 cell growth in a cell viability assay.

NCI-H460 = assay: cells; format: functional, cell-based; conditions: Homo sapiens;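 note: cell viability assay scoring growth inhibition of human NCI-H460 cells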
Description: SANGER: Inhibition of human NCI-H460 cell growth in a cell viability assay.

NCI-H810 = assay: cells; format: functional, cell-based; conditions: Homo sapiens;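 note: IC50 reflects inhibition of cancer cell line growth, read out with a cell viability assay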
Description: SANGER: Inhibition of human NCI-H810 cell growth in a cell viability assay.

SNU-16 = assay: cells; format: functional, cell-based; conditions: Homo sapiens;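 note: growth inhibition of human SNU-16 cells, determined with a cell viability readout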
Description: SANGER: Inhibition of human NCI-SNU-16 cell growth in a cell viability assay.

OAW-28 = assay: cells; format: functional, cell-based; conditions: Homo sapiens;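 note: growth inhibition of OAW-28 cells, read out with a cell viability assay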
Description: SANGER: Inhibition of human OAW-28 cell growth in a cell viability assay.

OVCAR-3 = assay: cells; format: functional, cell-based; conditions: Homo sapiens;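 note: growth inhibition of human OVCAR-3 cells, determined by a cell viability assay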
Description: SANGER: Inhibition of human OVCAR-3 cell growth in a cell viability assay.

RO82-W-1 = assay: cells; format: functional, cell-based; conditions: Homo sapiens;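 note: growth inhibition of human RO82-W-1 cells, measured with a cell viability assay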
Description: SANGER: Inhibition of human RO82-W-1 cell growth in a cell viability assay.

RPMI 8402 = assay: SANGER: Inhibition of human RPMI-8402 cell growth in a cell viability assay.; format: functional, cell-based
S-117 = assay: cells; format: functional, cell-based; conditions: Homo sapiens
Description: SANGER: Inhibition of human S-117 cell growth in a cell viability assay.

SAS = assay: cells; format: functional, cell-based; conditions: Homo sapiens;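 note: growth inhibition of SAS cells, read out with a cell viability assay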
Description: SANGER: Inhibition of human SAS cell growth in a cell viability assay.

SCC-4 = assay: cells; format: functional, cell-based; conditions: Homo sapiens;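 note: growth inhibition of human SCC-4 cells, read out as cell viability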
Description: SANGER: Inhibition of human SCC-4 cell growth in a cell viability assay.

SCLC-21H = assay: cells; format: functional, cell-based; conditions: Homo sapiens;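 note: growth inhibition of cultured human SCLC-21H cells, read out with a cell viability assay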
Description: SANGER: Inhibition of human SCLC-21H cell growth in a cell viability assay.

SK-HEP1 = assay: cells; format: functional, cell-based, SK-HEP-1; conditions: Homo sapiens;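 note: cell viability readout used to quantify reduction in proliferation of human SK-HEP-1 cells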
Description: SANGER: Inhibition of human SK-HEP-1 cell growth in a cell viability assay.

SNU-423 = assay: cells; format: functional, cell-based; conditions: Homo sapiens
Description: SANGER: Inhibition of human SNU-423 cell growth in a cell viability assay.

SW1417 = assay: cells; format: functional, cell-based; conditions: Homo sapiens;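 note: growth inhibition of human SW1417 cells, read out with a cell viability assay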
Description: SANGER: Inhibition of human SW1417 cell growth in a cell viability assay.

SW48 = assay: cells; format: functional, cell-based; conditions: Homo sapiens;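 note: growth inhibition of SW48 cells, read out with a cell viability assay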
Description: SANGER: Inhibition of human SW48 cell growth in a cell viability assay.

SW626 = assay: cells; format: functional, cell-based; conditions: Homo sapiens;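 note: growth inhibition of SW626 cells, measured with a cell viability assay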
Description: SANGER: Inhibition of human SW626 cell growth in a cell viability assay.

TALL-1 = assay: cells; format: functional, cell-based; conditions: Homo sapiens;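 note: growth inhibition of cultured human TALL-1 cells, read out by a cell viability assay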
Description: SANGER: Inhibition of human TALL-1 cell growth in a cell viability assay.

647-V = assay: cells; format: functional, cell-based; conditions: Homo sapiens;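 note: growth inhibition of 647-V cells, read out with a cell viability assay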
Description: SANGER: Inhibition of human 647-V cell growth in a cell viability assay.

786-0 = assay: cells; format: functional, cell-based; conditions: Homo sapiens
Description: SANGER: Inhibition of human 786-0 cell growth in a cell viability assay.

8505C = assay: cells; format: functional, cell-based; conditions: Homo sapiens
Description: SANGER: Inhibition of human 8505C cell growth in a cell viability assay.

A 172 = assay: cells; format: functional, cell-based; conditions: Homo sapiens;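 note: growth inhibition of A172 cells, measured with a cell viability readout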
Description: SANGER: Inhibition of human A172 cell growth in a cell viability assay.

A-375 = assay: cells; format: functional, cell-based; conditions: Homo sapiens;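 note: growth inhibition of A375 cells, read out with a cell viability assay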
Description: SANGER: Inhibition of human A375 cell growth in a cell viability assay.

ACHN = assay: cells; format: functional, cell-based; conditions: Homo sapiens;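 note: cell viability read-out used to gauge how strongly growth of human ACHN cells is suppressed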
Description: SANGER: Inhibition of human ACHN cell growth in a cell viability assay.

BC1 cell line = assay: SANGER: Inhibition of human BC-1 cell growth in a cell viability assay.; format: functional, cell-based
BEN = assay: cells; format: functional, cell-based; conditions: Homo sapiens;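 note: growth inhibition of the BEN cell line, read out with a cell viability assay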
Description: SANGER: Inhibition of human BEN cell growth in a cell viability assay.

BPH-1 = assay: cells; format: functional, cell-based; conditions: Homo sapiens;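 note: cell viability assay measuring growth inhibition of human BPH-1 cells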
Description: SANGER: Inhibition of human BPH-1 cell growth in a cell viability assay.

BT-20 = assay: cells; format: functional, cell-based; conditions: Homo sapiens;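 note: cell viability assay measuring suppression of growth in human BT-20 cells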
Description: SANGER: Inhibition of human BT-20 cell growth in a cell viability assay.

CAL-39 = assay: cells; format: functional, cell-based; conditions: Homo sapiens;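 note: cell viability assay measuring growth inhibition of CAL-39 cells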
Description: SANGER: Inhibition of human CAL-39 cell growth in a cell viability assay.

CAL-54 = assay: cells; format: functional, cell-based; conditions: Homo sapiens;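 note: growth inhibition of CAL-54 cells, read out by a viability measurement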
Description: SANGER: Inhibition of human CAL-54 cell growth in a cell viability assay.

TGW = assay: cells; format: functional, cell-based; conditions: Homo sapiens;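 note: growth inhibition of human TGW cells, read out with a cell viability assay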
Description: SANGER: Inhibition of human TGW cell growth in a cell viability assay.

U-118-MG = assay: cells; format: functional, cell-based; conditions: Homo sapiens
Description: SANGER: Inhibition of human U-118-MG cell growth in a cell viability assay.

YAPC = assay: cells; format: functional, cell-based; conditions: Homo sapiens
Description: SANGER: Inhibition of human YAPC cell growth in a cell viability assay.

CMK = assay: cells; format: functional, cell-based; conditions: Homo sapiens
Description: SANGER: Inhibition of human CMK cell growth in a cell viability assay.

COLO-678 = assay: cells; format: functional, cell-based; conditions: Homo sapiens
Description: SANGER: Inhibition of human COLO-678 cell growth in a cell viability assay.

CC(C)=CC[C@@H](O)C1=CC(=O)c2c(O)ccc(O)c2C1=O [SHIKONIN]
IC50 (Ca9-22): 0.581 µM | IC50 (DG-75): 1.17 µM | IC50 (DK-MG): 9.82 µM | IC50 (DMS-273): 0.396 µM | IC50 (DOK): 5.19 µM | IC50 (ESS-1): > 16 µM | IC50 (GCT): 1.15 µM | IC50 (HCC1806): 1.27 µM | IC50 (HEC-1): 1.13 µM | IC50 (HGC-27): 0.228 µM | IC50 (HO-1-N-1): 0.462 µM | IC50 (HPAF-II): 1.27 µM | IC50 (HT-29): 0.645 µM | IC50 (HuO-3N1): 4.43 µM | IC50 (HuP-T3): 0.834 µM | IC50 (LCLC-103H cell line): 0.346 µM | IC50 (LCLC-97TM1): 0.613 µM | IC50 (LN-405): 6.91 µM | IC50 (LOUCY): 0.586 µM | IC50 (LP-1): 0.686 µM | IC50 (MC-IXC): 0.387 µM | IC50 (MCF7): 0.435 µM | IC50 (MDA-MB-157): 0.637 µM | IC50 (MDA-MB-361): 1.73 µM | IC50 (MEL-HO): 0.149 µM | IC50 (MeWo): 0.517 µM | IC50 (NCI-H1563): 0.626 µM | IC50 (NCI-H2052): 0.0611 µM | IC50 (NCI-H2228): 0.901 µM | IC50 (NCI-H292): 0.853 µM | IC50 (NCI-H460): 1.28 µM | IC50 (NCI-H810): 0.503 µM | IC50 (SNU-16): > 16 µM | IC50 (OAW-28): 1.2 µM | IC50 (OVCAR-3): 0.383 µM | IC50 (RO82-W-1): 2.84 µM | IC50 (RPMI 8402): 1.5 µM | IC50 (S-117): 0.387 µM | IC50 (SAS): 0.854 µM | IC50 (SCC-4): 0.441 µM | IC50 (SCLC-21H): 1.36 µM | IC50 (SK-HEP1): 0.548 µM | IC50 (SNU-423): 0.163 µM | IC50 (SW1417): 0.826 µM | IC50 (SW48): 1.26 µM | IC50 (SW626): 0.635 µM | IC50 (TALL-1): > 16 µM | IC50 (647-V): 0.359 µM | IC50 (786-0): 0.344 µM | IC50 (8505C): 3.1 µM | IC50 (A 172): 0.47 µM | IC50 (A-375): 0.311 µM | IC50 (ACHN): 0.146 µM | IC50 (BC1 cell line): 2.68 µM | IC50 (BEN): 0.814 µM | IC50 (BPH-1): 1.26 µM | IC50 (BT-20): 2.56 µM | IC50 (CAL-39): 0.483 µM | IC50 (CAL-54): 1.42 µM | IC50 (TGW): 0.522 µM | IC50 (U-118-MG): 0.842 µM | IC50 (YAPC): > 16 µM | IC50 (CMK): 0.352 µM | IC50 (COLO-678): 1.63 µM

Fc1cc(-c2cc[nH]/c(=N/c3ccc(-n4cnc(N5CCOCC5)n4)cc3)n2)cc(N2CCOCC2)c1
IC50 (Ca9-22): 0.389 µM | IC50 (DG-75): 1.29 µM | IC50 (DK-MG): > 5.12 µM | IC50 (DMS-273): 0.105 µM | IC50 (DOK): 0.858 µM | IC50 (ESS-1): 0.659 µM | IC50 (GCT): 0.204 µM | IC50 (HCC1806): 0.637 µM | IC50 (HEC-1): 2.15 µM | IC50 (HGC-27): 0.284 µM | IC50 (HO-1-N-1): 0.617 µM | IC50 (HPAF-II): 0.512 µM | IC50 (HT-29): 0.358 µM | IC50 (HuO-3N1): 1.57 µM | IC50 (HuP-T3): > 5.12 µM | IC50 (LCLC-103H cell line): 0.135 µM | IC50 (LCLC-97TM1): 0.163 µM | IC50 (LN-405): 0.991 µM | IC50 (LOUCY): 0.112 µM | IC50 (LP-1): 0.483 µM | IC50 (MC-IXC): 0.127 µM | IC50 (MCF7): 0.389 µM | IC50 (MDA-MB-157): 0.457 µM | IC50 (MDA-MB-361): 1.07 µM | IC50 (MEL-HO): 0.19 µM | IC50 (MeWo): 0.199 µM | IC50 (NCI-H1563): 0.32 µM | IC50 (NCI-H2052): 1.65 µM | IC50 (NCI-H2228): 0.527 µM | IC50 (NCI-H292): 0.508 µM | IC50 (NCI-H460): 0.337 µM | IC50 (NCI-H810): 0.208 µM | IC50 (SNU-16): > 5.12 µM | IC50 (OAW-28): 1.45 µM | IC50 (OVCAR-3): 0.567 µM | IC50 (RO82-W-1): > 5.12 µM | IC50 (RPMI 8402): 0.605 µM | IC50 (S-117): > 5.12 µM | IC50 (SAS): 1.94 µM | IC50 (SCC-4): 1.25 µM | IC50 (SCLC-21H): > 5.12 µM | IC50 (SK-HEP1): 0.41 µM | IC50 (SNU-423): 0.378 µM | IC50 (SW1417): 0.885 µM | IC50 (SW48): 0.742 µM | IC50 (SW626): 1.09 µM | IC50 (TALL-1): > 5.12 µM | IC50 (647-V): 0.401 µM | IC50 (786-0): 0.228 µM | IC50 (8505C): 1.26 µM | IC50 (A 172): 0.669 µM | IC50 (A-375): 0.623 µM | IC50 (ACHN): 0.886 µM | IC50 (BC1 cell line): 0.491 µM | IC50 (BEN): 0.585 µM | IC50 (BPH-1): 1.97 µM | IC50 (BT-20): 0.493 µM | IC50 (CAL-39): 0.309 µM | IC50 (CAL-54): 1.88 µM | IC50 (TGW): 3.47 µM | IC50 (U-118-MG): > 5.12 µM | IC50 (YAPC): 2.29 µM | IC50 (CMK): 0.545 µM | IC50 (COLO-678): 3.65 µM
